Source: ChEMBL document CHEMBL5614399, “Design and Assessment of First-Generation Heterobifunctional PPARα/STING Modulators” (ACS Med Chem Lett, 2024)
Calls of active or inactive are those of the source. The calls are words filed in the database; no cut-off is given here.

What was measured:
[1] = tested on: 661W; assay: Cytoprotective activity against 4HNE-induced mouse 661W cells assessed as reduction in ROS level at 1 uM preincubated for 2 hrs followed by 4-HNE addition and measured after 24 hrs in presence of A229 by CM-H2DCFDA staining based fluorescence analysis; format: functional, cell-based; conditions: time 26.0 hrs
[2] = tested on: 661W; assay: Cytoprotective activity against 4HNE-induced mouse 661W cells assessed as reduction in ROS level at 0.5 uM preincubated for 2 hrs followed by 4-HNE addition and measured after 24 hrs in presence of A229 by CM-H2DCFDA staining based fluorescence analysis; format: functional, cell-based; conditions: time 26.0 hrs

What does the source list for O=C(Nc1ccc(O)c(NS(=O)(=O)c2ccc(F)cc2)c1)c1ccc(-c2ccccc2)cc1?
Activity [1]: Active; Activity [2]: Active
